Measured values: patent publication US10392368B2, “Pyrazolo and triazolo bicyclic compounds as JAK kinase inhibitors” (THERAVANCE BIOPHARMA R&D IP, LLC, priority 2017, dated 2019)

Legend:
[1] = target: T1, Tyk2 (Homo sapiens, UniProt P29597); assay: Biochemical Tyk2 kinase assay (LanthaScreen)
T1 construct: GST; purchased Life Technologies
Outline: (§1)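 TR-FRET read-out: terbium anti-pSTAT1 (pTyr701) antibody, 2 nM, with 10 mM EDTA quench, emission ratio 520/495 nm. GST-JAK phosphorylates GFP-STAT1 peptide for 1 h at ambient temperature after 1 h compound pre-incubation. pIC50 from dose-response converted to pKi by Cheng-Prusoff.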

[2] = system: IL-2 stimulated pSTAT5 in Tall-1 T cells; assay: Cellular JAK3 potency assay: inhibition of IL-2 stimulated pSTAT5 in Tall-1 T cells; type: cell-based, human; conditions: IL-2 stimulated pSTAT5, Tall-1 T cells
Outline: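 Tall-1 human T cells (45,000/well) in phenol red-free DMEM with 10% FBS were preincubated with compound 1 h at 37 °C, then stimulated with IL-2 (final 300 ng/ml) for 30 min. Lysate pSTAT5 read by AlphaLisa; IC50 from inhibition curves, reported as pIC50 (mean±SD).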

[3] = system: oxazolone-induced colitis; assay: Mouse model of oxazolone-induced colitis; type: in vivo; conditions: 3 mg/kg (PO, BID)
Procedure: Oxazolone-induced colitis is an experimental model that has a histological resemblance to human ulcerative colitis (Heller et al. Immunology, 2002, 17, 629-638). Adult BALB/C mice from Harlan were used in the assay. On day 1, animals were lightly anesthetized with isoflurane and the hairs between the shoulder were carefully removed before oxazolone (4%, 150 μL, 4:1 acetone:olive oil formulation) or vehicle solution was slowly applied for skin sensitization. Seven days after skin sensitization, the mice were fasted around 6 hours prior, anesthetized with ketamine/xylazine injection, and a 1 mL syringe equipped with a 3.5-F catheter, filled with oxazolone solution, was inserted carefully about 4 cm into the colon of the mouse. Following insertion, 50 μL of the oxazolone solution (0.8% in 1:1 ethanol:water formulation) was injected very slowly (over 30 sec using an injection pump) into the colon. Drug treatment (PO, QD or BID or TID) or vehicle was initiated a day prior to the oxazolone intrarectal (IR) challenge. Two-day post oxazolone intrarectal challenge, the disease was assessed by treatment-blinded experimenters for each mouse according to the criteria score: stool consistency score (0, normal; 2, loose; 4, diarrhea), gross bleeding score (0, absence; 2, blood tinged; 4, presence); Combined stool score endpoint=stool consistency score+stool blood score.
Select compounds were tested in the assay.

[4] = target: T2, JAK2 (Homo sapiens, UniProt O60674); assay: Biochemical JAK2 kinase assay (LanthaScreen)
T2 construct: GST; purchased Life Technologies
T2 sequence (O60674 whole entry): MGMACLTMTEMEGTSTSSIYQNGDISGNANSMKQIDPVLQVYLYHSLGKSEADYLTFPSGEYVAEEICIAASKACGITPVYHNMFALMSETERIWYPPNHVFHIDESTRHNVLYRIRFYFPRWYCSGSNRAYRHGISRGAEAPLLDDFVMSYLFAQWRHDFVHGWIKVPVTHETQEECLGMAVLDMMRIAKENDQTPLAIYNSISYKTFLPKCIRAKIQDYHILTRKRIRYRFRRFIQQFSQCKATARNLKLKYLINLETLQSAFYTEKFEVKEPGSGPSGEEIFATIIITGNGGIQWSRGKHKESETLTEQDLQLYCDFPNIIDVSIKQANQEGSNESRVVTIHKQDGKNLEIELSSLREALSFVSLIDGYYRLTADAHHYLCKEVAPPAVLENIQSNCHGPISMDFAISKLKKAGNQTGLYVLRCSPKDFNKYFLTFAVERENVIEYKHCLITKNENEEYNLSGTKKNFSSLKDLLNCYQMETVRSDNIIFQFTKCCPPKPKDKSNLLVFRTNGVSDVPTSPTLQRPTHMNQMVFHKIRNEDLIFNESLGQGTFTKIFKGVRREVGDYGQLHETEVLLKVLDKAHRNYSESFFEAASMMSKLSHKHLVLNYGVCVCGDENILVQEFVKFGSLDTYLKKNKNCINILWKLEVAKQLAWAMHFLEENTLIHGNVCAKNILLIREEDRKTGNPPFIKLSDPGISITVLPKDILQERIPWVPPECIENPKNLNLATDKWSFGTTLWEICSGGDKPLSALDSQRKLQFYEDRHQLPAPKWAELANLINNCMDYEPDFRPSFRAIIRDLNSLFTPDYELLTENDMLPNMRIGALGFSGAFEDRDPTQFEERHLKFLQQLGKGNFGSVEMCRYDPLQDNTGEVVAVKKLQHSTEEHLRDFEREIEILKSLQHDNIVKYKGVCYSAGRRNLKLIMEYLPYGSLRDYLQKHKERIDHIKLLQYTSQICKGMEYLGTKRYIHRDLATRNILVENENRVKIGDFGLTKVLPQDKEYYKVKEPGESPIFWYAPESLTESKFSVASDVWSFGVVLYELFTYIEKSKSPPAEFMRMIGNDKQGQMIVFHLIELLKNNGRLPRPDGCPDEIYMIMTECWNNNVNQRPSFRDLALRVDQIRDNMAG
Outline: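 GST-tagged recombinant JAK2 pre-incubated 1 h at ambient temperature with compound and GFP-STAT1 peptide in HEPES pH 7.5/MgCl2 buffer, then ATP added for a 1 h reaction with 1% DMSO. TR-FRET read after EDTA and Tb-anti-pSTAT1 (pTyr701) addition; IC50 from 4-parameter fit, converted to pKi by Cheng-Prusoff.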

[5] = target: T3, JAK3 (Homo sapiens, UniProt P52333); assay: Biochemical JAK3 kinase assay (LanthaScreen); design: GST; purchased Life Technologies
T3 sequence (P52333 1-1124): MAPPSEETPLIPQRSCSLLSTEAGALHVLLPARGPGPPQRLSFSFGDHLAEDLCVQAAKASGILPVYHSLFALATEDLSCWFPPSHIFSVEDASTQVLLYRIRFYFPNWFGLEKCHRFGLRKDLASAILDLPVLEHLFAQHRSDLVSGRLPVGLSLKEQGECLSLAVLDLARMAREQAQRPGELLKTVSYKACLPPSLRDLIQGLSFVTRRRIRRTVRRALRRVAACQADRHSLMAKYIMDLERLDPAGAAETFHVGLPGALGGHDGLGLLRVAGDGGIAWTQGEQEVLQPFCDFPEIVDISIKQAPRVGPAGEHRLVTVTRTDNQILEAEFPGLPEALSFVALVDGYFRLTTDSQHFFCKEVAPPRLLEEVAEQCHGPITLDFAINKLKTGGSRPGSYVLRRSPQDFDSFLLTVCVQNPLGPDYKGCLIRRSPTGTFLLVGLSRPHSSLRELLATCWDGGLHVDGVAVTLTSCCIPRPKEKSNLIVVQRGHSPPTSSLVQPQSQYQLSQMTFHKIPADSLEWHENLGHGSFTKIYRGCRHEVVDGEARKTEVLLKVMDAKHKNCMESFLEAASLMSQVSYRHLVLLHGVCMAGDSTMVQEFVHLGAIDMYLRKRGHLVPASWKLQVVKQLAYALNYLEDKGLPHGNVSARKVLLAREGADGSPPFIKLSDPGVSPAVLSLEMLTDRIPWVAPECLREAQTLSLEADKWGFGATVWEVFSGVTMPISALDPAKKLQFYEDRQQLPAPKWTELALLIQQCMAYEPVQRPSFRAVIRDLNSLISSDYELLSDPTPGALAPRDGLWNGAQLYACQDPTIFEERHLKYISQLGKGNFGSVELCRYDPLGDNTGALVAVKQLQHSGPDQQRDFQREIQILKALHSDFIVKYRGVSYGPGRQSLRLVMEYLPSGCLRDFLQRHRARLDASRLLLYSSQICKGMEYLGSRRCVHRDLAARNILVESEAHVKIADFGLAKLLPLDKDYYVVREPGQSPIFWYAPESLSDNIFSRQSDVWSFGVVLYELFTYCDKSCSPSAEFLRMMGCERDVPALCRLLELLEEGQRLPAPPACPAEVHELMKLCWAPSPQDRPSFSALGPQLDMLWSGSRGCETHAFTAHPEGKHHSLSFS
Outline: as §1

[6] = target: T4, JAK1 (Homo sapiens, UniProt P23458); assay: Biochemical JAK1 kinase assay (LanthaScreen)
T4 construct: GST; purchased Life Technologies
T4 sequence (P23458 whole entry): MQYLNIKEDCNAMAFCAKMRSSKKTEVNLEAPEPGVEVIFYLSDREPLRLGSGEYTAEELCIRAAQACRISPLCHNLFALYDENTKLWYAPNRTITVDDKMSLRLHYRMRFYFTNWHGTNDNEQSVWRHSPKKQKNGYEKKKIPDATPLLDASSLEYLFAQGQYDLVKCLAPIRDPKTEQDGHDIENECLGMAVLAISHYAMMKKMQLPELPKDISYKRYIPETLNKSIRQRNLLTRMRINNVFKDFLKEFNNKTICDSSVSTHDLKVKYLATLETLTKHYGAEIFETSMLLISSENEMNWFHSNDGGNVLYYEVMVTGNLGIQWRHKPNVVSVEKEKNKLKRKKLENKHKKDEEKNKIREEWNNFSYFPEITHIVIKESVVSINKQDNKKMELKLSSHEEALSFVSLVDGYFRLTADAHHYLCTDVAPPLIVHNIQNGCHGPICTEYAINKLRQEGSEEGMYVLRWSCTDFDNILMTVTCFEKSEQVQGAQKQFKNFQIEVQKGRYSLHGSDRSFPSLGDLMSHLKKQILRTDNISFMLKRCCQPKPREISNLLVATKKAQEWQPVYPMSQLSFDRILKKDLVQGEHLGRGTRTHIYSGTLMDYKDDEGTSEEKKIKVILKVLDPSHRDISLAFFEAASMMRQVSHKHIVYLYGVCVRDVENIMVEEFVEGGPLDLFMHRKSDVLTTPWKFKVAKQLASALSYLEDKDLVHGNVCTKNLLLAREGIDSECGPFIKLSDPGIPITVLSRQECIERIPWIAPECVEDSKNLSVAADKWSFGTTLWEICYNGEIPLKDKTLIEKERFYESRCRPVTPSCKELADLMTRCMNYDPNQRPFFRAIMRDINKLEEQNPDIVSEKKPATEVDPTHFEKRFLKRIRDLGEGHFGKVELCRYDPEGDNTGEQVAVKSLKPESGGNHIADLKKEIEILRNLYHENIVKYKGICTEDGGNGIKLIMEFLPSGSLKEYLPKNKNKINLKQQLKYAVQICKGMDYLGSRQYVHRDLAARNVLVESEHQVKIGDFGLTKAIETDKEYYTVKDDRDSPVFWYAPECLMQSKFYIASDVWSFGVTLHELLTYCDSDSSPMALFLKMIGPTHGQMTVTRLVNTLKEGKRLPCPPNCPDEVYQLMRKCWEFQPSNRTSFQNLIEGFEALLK
Outline: as §1

[7] = Colon and plasma mouse pharmacokinetics; type: in vivo; conditions: mouse, colon tissue / plasma; male Balb/c mice, 10 mg/kg PO; 0.5, 2 and 6 hours; read-out: colon to plasma ratio (colon AUC to plasma AUC)
Procedure: 6 male Balb/c mice were administered 10 mg/kg of compound in 1% HPMC+0.1% Tween-80 by PO administration. At 0.5, 2 and 6 hours after dose administration, animals were anesthetized, and terminal blood samples were collected by cardiac puncture, followed by collection of colon contents and colon tissue.
Blood samples were collected into K2EDTA and stored on wet ice until processed to plasma by centrifugation (12000 rpm at 4° C.). Plasma samples were transferred to cluster tubes and placed on dry ice prior to freezer storage. The colon contents from each animal were collected at each terminal blood collection time point. The colon tissues were flushed with saline and patted dry. The colon and colon content tissues were homogenized using sterile water containing 0.1% formic acid 9:1 (water:tissue, v/w). The homogenized tissues and colon contents were transferred to cluster tubes and placed on dry ice prior to freezer storage. All samples were analyzed using LC/MS/MS against analytical standards.
The composite pharmacokinetic parameters of the compounds were determined by non-compartmental analysis using Phoenix WinNonlin Version 6 (Certara, St. Louis, Mo.) and using mean values from 2 animals/time point. For plasma concentrations below the quantification limit (BQL), the lowest concentration measurable or the BLOQ (below limit of quantification) was used.
A colon to plasma ratio was determined as the ratio of the colon AUC to the plasma AUC.

[8] = system: IL-2 stimulated pSTAT5 in CD4+ T cells; assay: Inhibition of IL-2 stimulated pSTAT5 in CD4+ T cells isolated from murine splenocytes; type: cell-based; conditions: Mus musculus, AlphaLisa, read-out: pIC50, inhibition of IL-2 stimulated pSTAT5 (converted)
Procedure: The potency of test compounds for inhibition of interleukin-2 (IL-2) stimulated STAT5 phosphorylation was measured in the CD4+ T cells isolated from murine splenocytes using AlphaLisa. Because IL-2 signals through JAK3, this assay provides a measure of JAK3 cellular potency in mouse.
Phosphorylated STAT5 was measured via the AlphaLISA SureFire Ultra pSTAT5 (Tyr694/699) kit (PerkinElmer).
CD4+ T cells were isolated from murine splenocytes via negative selection on a magnetic column (Miltnyi Biotec) and re-suspended in assay media (phenol red-free DMEM (Life Technologies) supplemented with 10% FBS (ATCC)). Cells were seeded at 50,000 cells/well in assay media (2 μL/well). Compounds were serially diluted in DMSO and diluted to 2× final concentration in assay media. Compound was added (4 μl/well) and the cells incubated at 37° C., 5% CO2 for 1 hour, followed by the addition of IL-2 (R&D Systems; final concentration 7 ng/ml) in pre-warmed assay media (2 μL) for 30 minutes. After cytokine stimulation, cells were lysed with 2 μl of 5× AlphaLisa Lysis Buffer (PerkinElmer). The lysate was shaken at 900 rpm for 10 minutes at room temperature (RT). Phosphorylated STAT5 was measured via the pSTAT5 AlphaLisa kit (PerkinElmer). Freshly prepared acceptor bead mixture was dispensed onto lysate (5 ul) under green filtered <100 lux light. Plates were shaken at 900 rpm for 2 mins, briefly spun down, and incubated for 2 hrs at RT in the dark. Donor beads were dispensed (5 μl) under green filtered <100 lux light. Plates were shaken at 900 rpm for 2 mins, briefly spun down, and incubated overnight at RT in the dark. Luminescence was measured with excitation at 689 nm and emission at 570 nm using an EnVision plate reader (PerkinElmer) under green filtered <100 lux light.
To determine the inhibitory potency of test compounds in response to IL-2, the average emission intensity of beads bound to pSTAT5 was measured in primary CD4+ T cells isolated from murine splenocytes. IC50 values were determined from analysis of the inhibition curves of signal intensity vs compound concentration. Data are expressed as pIC50 (negative decadic logarithm IC50) values (mean±standard deviation).

[9] = Dynamic moisture sorption (DMS) assessment; type: physicochemical; conditions: 25° C.; for hygroscopicity: DMS, 5% to 90% relative humidity; for weight gain (moisture uptake): humidity range of 5% to 90% relative humidity
Procedure: Dynamic moisture sorption (DMS) measurements were performed using a VTI atmospheric microbalance, SGA-100 system (VTI Corp., Hialeah, Fla. 33016). A weighed sample was used and the humidity was lowest possible value (close to 0% RH) at the start of the analysis. The DMS analysis consisted of an initial drying step (0% RH) for 120 minutes, followed by two cycles of sorption and desorption with a scan rate of 5% RH/step over the humidity range of 5% RH to 90% RH. The DMS run was performed isothermally at 25° C.

T1 sequence (P29597 whole entry): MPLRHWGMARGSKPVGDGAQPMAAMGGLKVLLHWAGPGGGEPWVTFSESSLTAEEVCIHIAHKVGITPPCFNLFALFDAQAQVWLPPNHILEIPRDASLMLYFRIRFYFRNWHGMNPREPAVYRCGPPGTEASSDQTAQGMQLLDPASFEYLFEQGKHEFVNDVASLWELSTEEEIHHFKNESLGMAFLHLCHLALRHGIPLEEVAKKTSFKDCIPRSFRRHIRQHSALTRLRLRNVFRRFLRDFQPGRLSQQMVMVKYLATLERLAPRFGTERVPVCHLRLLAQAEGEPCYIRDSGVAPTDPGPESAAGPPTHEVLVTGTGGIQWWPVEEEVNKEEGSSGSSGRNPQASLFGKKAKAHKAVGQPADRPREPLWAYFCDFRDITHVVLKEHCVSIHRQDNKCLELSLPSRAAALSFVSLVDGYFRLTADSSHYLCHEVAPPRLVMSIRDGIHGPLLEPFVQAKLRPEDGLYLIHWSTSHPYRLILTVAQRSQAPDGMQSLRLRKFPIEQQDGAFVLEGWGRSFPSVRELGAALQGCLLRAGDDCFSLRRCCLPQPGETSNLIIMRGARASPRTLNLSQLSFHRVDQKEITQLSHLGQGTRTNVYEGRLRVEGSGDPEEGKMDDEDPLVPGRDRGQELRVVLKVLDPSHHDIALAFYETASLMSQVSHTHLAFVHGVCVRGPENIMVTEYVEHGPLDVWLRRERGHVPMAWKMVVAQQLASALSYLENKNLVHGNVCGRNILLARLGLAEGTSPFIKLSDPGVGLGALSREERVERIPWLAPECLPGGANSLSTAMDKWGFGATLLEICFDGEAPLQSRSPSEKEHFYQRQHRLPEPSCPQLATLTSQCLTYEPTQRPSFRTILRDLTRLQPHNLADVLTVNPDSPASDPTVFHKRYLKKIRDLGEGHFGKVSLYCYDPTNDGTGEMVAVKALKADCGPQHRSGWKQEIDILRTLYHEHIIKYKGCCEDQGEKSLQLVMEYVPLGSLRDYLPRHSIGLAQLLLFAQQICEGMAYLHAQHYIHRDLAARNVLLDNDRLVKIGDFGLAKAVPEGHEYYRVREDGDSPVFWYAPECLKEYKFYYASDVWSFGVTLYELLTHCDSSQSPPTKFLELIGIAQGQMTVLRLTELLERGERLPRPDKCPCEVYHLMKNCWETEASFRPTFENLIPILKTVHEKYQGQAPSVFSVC

Row | Structure (SMILES) | combined stool score endpoint as compared with vehicle treated animals [3] | hygroscopicity [9] | weight gain (moisture uptake) [9] | other results
1 | C=CC(=O)N1CC2(CC(Oc3nc(-c4ccc(O)cc4)nc4[nH]ncc34)C2)C1 [Compound 15-3] | statistically significant decrease | – | – | Tyk 2 (pKi) [1]: E (a pKi value of 7 or below (Ki of 100 nM or above)); Tall-1 (pIC50) [2]: A (a pIC50 value≥7.5 (IC50≤32 nM)); JAK 2 (pKi) [4]: E (a pKi value of 7 or below (Ki of 100 nM or above)); JAK 3 (pKi) [5]: A (a pKi value≥10 (Ki≤0.1 nM)); JAK3 (pKi)-JAK1 (pKi) ([5]; selectivity JAK3 over JAK1, difference of pKi): A (a value of 3 or above); JAK 1 (pKi) [6]: E (a pKi value of 7 or below (Ki of 100 nM or above))
2 | CN(C)C/C=C/C(=O)N1CC(C(C)(C)Oc2cc(-c3ccc(O)c(F)c3)cc3[nH]ncc23)C1 [Compound 19, (E)-1-(3-(2-((6-(3-fluoro-4-hydroxyphenyl)-1H-indazol-4-yl)oxy)propan-2-yl)azetidin-1-yl)-4-(dimethylamino)but-2-en-1-one] | statistically significant decrease | – | – | Kp [7]: > 200; IC50 [8]: < 1000 nM
3 | CN(C)C/C=C/C(=O)N1CC(C(C)(C)Oc2cc(-c3ccc(O)c(Cl)c3)cc3[nH]ncc23)C1 [Form 1, (E)-1-(3-(2-((6-(3-chloro-4-hydroxyphenyl)-1H-indazol-4-yl)oxy)propan-2-yl)azetidin-1-yl)-4-(dimethylamino)but-2-en-1-one] | – | slightly hygroscopic | about 1.62% | –
4 | CN(C)C/C=C/C(=O)N1CC(C(C)(C)Oc2cc(-c3ccc(O)c(Cl)c3)cc3[nH]ncc23)C1 [Form 2, (E)-1-(3-(2-((6-(3-chloro-4-hydroxyphenyl)-1H-indazol-4-yl)oxy)propan-2-yl)azetidin-1-yl)-4-(dimethylamino)but-2-en-1-one] | – | – | 7.99% | –
5 | CN(C)C/C=C/C(=O)N1CC(COc2cc(-c3ccc(O)cc3)cc3[nH]ncc23)C1 [Form 3, (E)-4-(dimethylamino)-1-(3-(((6-(4-hydroxyphenyl)-1H-indazol-4-yl)oxy)methyl)azetidin-1-yl)but-2-en-1-one] | – | non-hygroscopic | about 0.33% | –
6 | CN(C)C/C=C/C(=O)N1CC(COc2cc(-c3ccc(O)cc3)cc3[nH]ncc23)C1 [Form 4, (E)-4-(dimethylamino)-1-(3-(((6-(4-hydroxyphenyl)-1H-indazol-4-yl)oxy)methyl)azetidin-1-yl)but-2-en-1-one] | – | moderately hygroscopic | about 5.01% | –
